# Laboratory results reported in ChEMBL document CHEMBL3124779, “Discovery of ABT-267, a pan-genotypic inhibitor of HCV NS5A” (J Med Chem, 2014).
# Experiments:
# [1] = Volume of distribution at steady state in rat at 3 mg/kg, iv; assay type: ADME, organism-based; parameters: dose 3 mg/kg, route intravenous; conditions: in vivo, read-out: Vdss
# Hepatitis C virus [2] = assay: Resistant ratio of EC50 for wild type HCV1a to EC50 for HCV1a harboring NS5A H58D mutant infected in human HuH7 cells; assay type: functional, Hepacivirus hominis, subtype 1a, Huh-7
# Hepatitis C virus [3] = assay: Resistant ratio of EC50 for wild type HCV1b to EC50 for HCV1b harboring NS5A L31M and Y93H mutant infected in human HuH7 cells; assay type: functional, Hepacivirus hominis, genotype 1b, Huh-7
# [4] = Half life in HCV1 infected patient at 5 to 200 mg qd for 3 days; assay type: ADME, organism-based; conditions: human, in vivo
# [5] = Half life in monkey at 1 mg/kg, iv; assay type: ADME, organism-based, Macaca mulatta; parameters: dose 1 mg/kg, route intravenous; conditions: rhesus monkey, in vivo
# Hepatitis C virus [6] = assay: Resistant ratio of EC50 for wild type HCV1b to EC50 for HCV1b harboring NS5A L31F mutant infected in human HuH7 cells; assay type: functional, Hepacivirus hominis, genotype 1b, Huh-7
# Hepatitis C virus [7] = assay: Antiviral activity against HCV1b harboring NS5A L31V mutant infected in human HuH7 cells assessed as inhibition of viral replication after 4 days by luciferase reporter gene assay; assay type: functional, Hepacivirus hominis, genotype 1b, Huh-7
# Hepatitis C virus [8] = assay: Antiviral activity against HCV1b Con1 infected in human HuH7 cells assessed as inhibition of viral replication after 4 days by luciferase reporter gene assay; assay type: functional, organism-based, Hepacivirus hominis; conditions: isolate Con1, Huh-7, 96 h
# [9] = Cmax in rat at 3 mg/kg, po; assay type: ADME, organism-based; parameters: dose 3 mg/kg, route oral; conditions: in vivo
# Hepatitis C virus [10] = assay: Resistant ratio of EC50 for wild type HCV1a to EC50 for HCV1a harboring NS5A M28T mutant infected in human HuH7 cells; assay type: functional, Hepacivirus hominis, subtype 1a, Huh-7
# Hepatitis C virus [11] = assay: Resistant ratio of EC50 for wild type HCV1b to EC50 for HCV1b harboring NS5A L28T mutant infected in human HuH7 cells; assay type: functional, Hepacivirus hominis, genotype 1b, Huh-7
# Hepatitis C virus [12] = assay: Ratio of EC50 for HCV1b Con1 infected in human HuH7 cells in presence of 40% human plasma to EC50 for HCV1b Con1 infected in human HuH7 cells in absence of 40% human plasma; assay type: functional, Hepacivirus hominis, isolate Con1, Huh-7
# [13] = Half life in rat at 3 mg/kg, iv; assay type: ADME, organism-based; parameters: dose 3 mg/kg, route intravenous; conditions: in vivo
# [14] = Oral bioavailability in rat at 3 mg/kg; assay type: ADME, organism-based; conditions: in vivo
# Hepatitis C virus [15] = assay: Resistant ratio of EC50 for wild type HCV1a to EC50 for HCV1a harboring NS5A Q30R mutant infected in human HuH7 cells; assay type: functional, Hepacivirus hominis, subtype 1a, Huh-7
# [16] = Volume of distribution at steady state in monkey at 1 mg/kg, iv; assay type: ADME, organism-based, Macaca mulatta; parameters: dose 1 mg/kg, route intravenous; conditions: rhesus monkey, in vivo, read-out: Vdss
# Hepatitis C virus [17] = assay: Antiviral activity against HCV1a harboring NS5A M28T mutant infected in human HuH7 cells assessed as inhibition of viral replication after 4 days by luciferase reporter gene assay; assay type: functional, Hepacivirus hominis, subtype 1a, Huh-7
# [18] = Oral bioavailability in monkey at 2.5 mg/kg; assay type: ADME, organism-based, Macaca mulatta; conditions: rhesus monkey, in vivo
# Hepatitis C virus [19] = assay: Antiviral activity against HCV1b harboring NS5A R30Q and Y93H mutant infected in human HuH7 cells assessed as inhibition of viral replication after 4 days by luciferase reporter gene assay; assay type: functional, Hepacivirus hominis, genotype 1b, Huh-7
# Hepatitis C virus [20] = assay: Antiviral activity against HCV1a harboring NS5A Y93C mutant infected in human HuH7 cells assessed as inhibition of viral replication after 4 days by luciferase reporter gene assay; assay type: functional, Hepacivirus hominis, subtype 1a, Huh-7
# Hepatitis C virus [21] = assay: Resistant ratio of EC50 for wild type HCV1b to EC50 for HCV1b harboring NS5A L31V and Y93H mutant infected in human HuH7 cells; assay type: functional, Hepacivirus hominis, genotype 1b, Huh-7
# [22] = Half life in dog at 2.5 mg/kg, po; assay type: ADME, organism-based, Canis lupus familiaris; parameters: dose 2.5 mg/kg, route oral; conditions: in vivo
# [23] = Tmax in monkey at 2.5 mg/kg, po; assay type: ADME, organism-based, Macaca mulatta; parameters: dose 2.5 mg/kg, route oral; conditions: rhesus monkey, in vivo
# Hepatitis C virus [24] = assay: Antiviral activity against HCV1a H77 infected in human HuH7 cells assessed as inhibition of viral replication after 4 days by luciferase reporter gene assay in presence of 40% human plasma; assay type: functional, organism-based, Hepacivirus hominis; conditions: genotype 1a H77, Huh-7, Plasma, 96 h
# Hepatitis C virus [25] = assay: Antiviral activity against HCV1b harboring NS5A L28T mutant infected in human HuH7 cells assessed as inhibition of viral replication after 4 days by luciferase reporter gene assay; assay type: functional, Hepacivirus hominis, genotype 1b, Huh-7
# Homo sapiens = species: Homo sapiens; assay: Toxicity in HCV1 infected patient assessed as adverse event at 5 to 200 mg qd for 3 days; assay type: organism-based; conditions: in vivo, 72 h
# Hepatitis C virus [26] = assay: Antiviral activity against HCV5a infected in human HuH7 cells assessed as inhibition of viral replication after 4 days by luciferase reporter gene assay; assay type: functional, organism-based, Hepacivirus hominis; conditions: genotype 5a, Huh-7, 96 h
# [27] = Clearance in rat at 3 mg/kg, iv; assay type: ADME, organism-based; parameters: dose 3 mg/kg, route intravenous; conditions: in vivo
# Hepatitis C virus [28] = assay: Antiviral activity in HCV1 infected in human assessed as log reduction of viral RNA at 5 to 200 mg qd for 3 days relative to control; assay type: functional, Hepacivirus hominis, genotype 1
# Hepatitis C virus [29] = assay: Resistant ratio of EC50 for wild type HCV1b to EC50 for HCV1b harboring NS5A R30Q and Y93H mutant infected in human HuH7 cells; assay type: functional, Hepacivirus hominis, genotype 1b, Huh-7
# [30] = AUC in rat at 3 mg/kg, po; assay type: ADME, organism-based; parameters: dose 3 mg/kg, route oral; conditions: plasma
# Hepatitis C virus [31] = assay: Antiviral activity against HCV1b harboring NS5A L31F and Y93H mutant infected in human HuH7 cells assessed as inhibition of viral replication after 4 days by luciferase reporter gene assay; assay type: functional, Hepacivirus hominis, genotype 1b, Huh-7
# [32] = AUC in monkey at 2.5 mg/kg, po; assay type: ADME, organism-based, Macaca mulatta; parameters: dose 2.5 mg/kg, route oral; conditions: rhesus monkey, plasma
# Hepatitis C virus [33] = assay: Antiviral activity against HCV1b harboring NS5A L31M and Y93H mutant infected in human HuH7 cells assessed as inhibition of viral replication after 4 days by luciferase reporter gene assay; assay type: functional, Hepacivirus hominis, genotype 1b, Huh-7
# [34] = Volume of distribution at steady state in dog at 1 mg/kg, iv; assay type: ADME, organism-based, Canis lupus familiaris; parameters: dose 1 mg/kg, route intravenous; conditions: in vivo, read-out: Vdss
# Hepatitis C virus [35] = assay: Antiviral activity against HCV6a infected in human HuH7 cells assessed as inhibition of viral replication after 4 days by luciferase reporter gene assay; assay type: functional, organism-based, Hepacivirus hominis; conditions: genotype 6a, Huh-7, 96 h
# [36] = Clearance in dog at 1 mg/kg, iv; assay type: ADME, organism-based, Canis lupus familiaris; parameters: dose 1 mg/kg, route intravenous; conditions: in vivo
# Hepatitis C virus [37] = assay: Resistant ratio of EC50 for wild type HCV1a to EC50 for HCV1a harboring NS5A Y93C mutant infected in human HuH7 cells; assay type: functional, Hepacivirus hominis, subtype 1a, Huh-7
# [38] = Metabolic stability in rat liver microsomes assessed as compound remaining after 30 mins; assay type: ADME; conditions: read-out: Stability
# [39] = Kinetic solubility of the compound in 10 mM of phosphate buffer at pH 7.2 by CLND method; assay type: physicochemical; conditions: read-out: Kinetic_solubility
# [40] = Oral bioavailability in dog at 2.5 mg/kg; assay type: ADME, organism-based, Canis lupus familiaris; conditions: in vivo
# Hepatitis C virus [41] = assay: Antiviral activity against HCV1b harboring NS5A L31V and Y93H mutant infected in human HuH7 cells assessed as inhibition of viral replication after 4 days by luciferase reporter gene assay; assay type: functional, Hepacivirus hominis, genotype 1b, Huh-7
# Hepatitis C virus [42] = assay: Antiviral activity against HCV1a harboring NS5A M28V mutant infected in human HuH7 cells assessed as inhibition of viral replication after 4 days by luciferase reporter gene assay; assay type: functional, Hepacivirus hominis, subtype 1a, Huh-7
# Hepatitis C virus [43] = assay: Antiviral activity against HCV1b harboring NS5A Y93H mutant infected in human HuH7 cells assessed as inhibition of viral replication after 4 days by luciferase reporter gene assay; assay type: functional, Hepacivirus hominis, genotype 1b, Huh-7
# [44] = Cmax in HCV1 infected patient at 5 to 200 mg qd for 3 days; assay type: ADME, organism-based; conditions: human, in vivo
# [45] = Clearance in monkey at 1 mg/kg, iv; assay type: ADME, organism-based, Macaca mulatta; parameters: dose 1 mg/kg, route intravenous; conditions: rhesus monkey, in vivo
# Hepatitis C virus [46] = assay: Antiviral activity against HCV1a harboring NS5A H58D mutant infected in human HuH7 cells assessed as inhibition of viral replication after 4 days by luciferase reporter gene assay; assay type: functional, Hepacivirus hominis, subtype 1a, Huh-7
structure (smiles),measurement,setting,value
COC(=O)N[C@H](C(=O)N1CCC[C@H]1C(=O)Nc1ccc([C@@H]2CC[C@@H](c3ccc(NC(=O)[C@@H]4CCCN4C(=O)[C@@H](NC(=O)OC)C(C)C)cc3)N2c2ccc(C(C)(C)C)cc2)cc1)C(C)C [OMBITASVIR],Vd,[1],5.9 L/kg
same,Ratio EC50,Hepatitis C virus [2],243
same,Ratio EC50,Hepatitis C virus [3],142
same,half-life,[4],1500 min
same,half-life,[5],264 min
same,Ratio EC50,Hepatitis C virus [6],10
same,Efficacy,Hepatitis C virus [7],86%
same,EC50,Hepatitis C virus [8],5 pM
same,Cmax,[9],10 ng/mL
same,Ratio EC50,Hepatitis C virus [10],8965
same,Ratio EC50,Hepatitis C virus [11],661
same,Ratio EC50,Hepatitis C virus [12],11
same,half-life,[13],594 min
same,bioavailability,[14],6.2%
same,Ratio EC50,Hepatitis C virus [15],800
same,Vd,[16],1.5 L/kg
same,Efficacy,Hepatitis C virus [17],100%
same,bioavailability,[18],35%
same,Efficacy,Hepatitis C virus [19],60%
same,Efficacy,Hepatitis C virus [20],24%
same,Ratio EC50,Hepatitis C virus [21],12323
same,half-life,[22],438 min
same,Tmax,[23],3.3 h
same,EC50,Hepatitis C virus [24],0.186 nM
same,Efficacy,Hepatitis C virus [25],17%
same,Activity,Homo sapiens,Non-toxic
same,EC50,Hepatitis C virus [26],4.3 pM
same,clearance,[27],10.8 mL/min/kg
same,Activity,Hepatitis C virus [28],<=3.1 log10IU/ml
same,Ratio EC50,Hepatitis C virus [29],284
same,AUC,[30],290 ng·h/mL
same,Efficacy,Hepatitis C virus [31],35%
same,AUC,[32],2400 ng·h/mL
same,Efficacy,Hepatitis C virus [33],11%
same,Vd,[34],1.8 L/kg
same,EC50,Hepatitis C virus [35],0.415 nM
same,clearance,[36],3 mL/min/kg
same,Ratio EC50,Hepatitis C virus [37],1675
same,remaining at 0.5 h,[38],73%
same,solubility kinetic,[39],2.7 µM
same,bioavailability,[40],57%
same,Efficacy,Hepatitis C virus [41],24%
same,Efficacy,Hepatitis C virus [42],87%
same,Efficacy,Hepatitis C virus [43],73%
same,Cmax,[44],5.7 ng/mL
same,clearance,[45],6.33 mL/min/kg
same,Efficacy,Hepatitis C virus [46],66%
